Data taken from patent US12441703B2, “Carboxamides as modulators of sodium channels” (VERTEX PHARMACEUTICALS INCORPORATED, priority 2019, dated 2025).

Molecular target: human NaV 1.8 (Homo sapiens, UniProt Q9Y5Y9)
Assay: E-VIPR assay for detecting and measuring NaV inhibition properties
Type: cell-based
Conditions: E-VIPR assay conducted in the presence of human serum; HEK cells expressing truncated human NaV 1.8; read-out: IC50
Summary of the method: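 Membrane-potential (coumarin/oxonol) readout after 10 s of 10 Hz biphasic electrical stimulation on E-VIPR. Compounds: 11-point 3-fold dilutions, […], 0.625% DMSO, 30 min at room temperature, human serum optional. Cells: HEK expressing truncated human NaV1.8 co-transduced with KIR2.1.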

human NaV 1.8, sequence (Q9Y5Y9 whole entry, looked up): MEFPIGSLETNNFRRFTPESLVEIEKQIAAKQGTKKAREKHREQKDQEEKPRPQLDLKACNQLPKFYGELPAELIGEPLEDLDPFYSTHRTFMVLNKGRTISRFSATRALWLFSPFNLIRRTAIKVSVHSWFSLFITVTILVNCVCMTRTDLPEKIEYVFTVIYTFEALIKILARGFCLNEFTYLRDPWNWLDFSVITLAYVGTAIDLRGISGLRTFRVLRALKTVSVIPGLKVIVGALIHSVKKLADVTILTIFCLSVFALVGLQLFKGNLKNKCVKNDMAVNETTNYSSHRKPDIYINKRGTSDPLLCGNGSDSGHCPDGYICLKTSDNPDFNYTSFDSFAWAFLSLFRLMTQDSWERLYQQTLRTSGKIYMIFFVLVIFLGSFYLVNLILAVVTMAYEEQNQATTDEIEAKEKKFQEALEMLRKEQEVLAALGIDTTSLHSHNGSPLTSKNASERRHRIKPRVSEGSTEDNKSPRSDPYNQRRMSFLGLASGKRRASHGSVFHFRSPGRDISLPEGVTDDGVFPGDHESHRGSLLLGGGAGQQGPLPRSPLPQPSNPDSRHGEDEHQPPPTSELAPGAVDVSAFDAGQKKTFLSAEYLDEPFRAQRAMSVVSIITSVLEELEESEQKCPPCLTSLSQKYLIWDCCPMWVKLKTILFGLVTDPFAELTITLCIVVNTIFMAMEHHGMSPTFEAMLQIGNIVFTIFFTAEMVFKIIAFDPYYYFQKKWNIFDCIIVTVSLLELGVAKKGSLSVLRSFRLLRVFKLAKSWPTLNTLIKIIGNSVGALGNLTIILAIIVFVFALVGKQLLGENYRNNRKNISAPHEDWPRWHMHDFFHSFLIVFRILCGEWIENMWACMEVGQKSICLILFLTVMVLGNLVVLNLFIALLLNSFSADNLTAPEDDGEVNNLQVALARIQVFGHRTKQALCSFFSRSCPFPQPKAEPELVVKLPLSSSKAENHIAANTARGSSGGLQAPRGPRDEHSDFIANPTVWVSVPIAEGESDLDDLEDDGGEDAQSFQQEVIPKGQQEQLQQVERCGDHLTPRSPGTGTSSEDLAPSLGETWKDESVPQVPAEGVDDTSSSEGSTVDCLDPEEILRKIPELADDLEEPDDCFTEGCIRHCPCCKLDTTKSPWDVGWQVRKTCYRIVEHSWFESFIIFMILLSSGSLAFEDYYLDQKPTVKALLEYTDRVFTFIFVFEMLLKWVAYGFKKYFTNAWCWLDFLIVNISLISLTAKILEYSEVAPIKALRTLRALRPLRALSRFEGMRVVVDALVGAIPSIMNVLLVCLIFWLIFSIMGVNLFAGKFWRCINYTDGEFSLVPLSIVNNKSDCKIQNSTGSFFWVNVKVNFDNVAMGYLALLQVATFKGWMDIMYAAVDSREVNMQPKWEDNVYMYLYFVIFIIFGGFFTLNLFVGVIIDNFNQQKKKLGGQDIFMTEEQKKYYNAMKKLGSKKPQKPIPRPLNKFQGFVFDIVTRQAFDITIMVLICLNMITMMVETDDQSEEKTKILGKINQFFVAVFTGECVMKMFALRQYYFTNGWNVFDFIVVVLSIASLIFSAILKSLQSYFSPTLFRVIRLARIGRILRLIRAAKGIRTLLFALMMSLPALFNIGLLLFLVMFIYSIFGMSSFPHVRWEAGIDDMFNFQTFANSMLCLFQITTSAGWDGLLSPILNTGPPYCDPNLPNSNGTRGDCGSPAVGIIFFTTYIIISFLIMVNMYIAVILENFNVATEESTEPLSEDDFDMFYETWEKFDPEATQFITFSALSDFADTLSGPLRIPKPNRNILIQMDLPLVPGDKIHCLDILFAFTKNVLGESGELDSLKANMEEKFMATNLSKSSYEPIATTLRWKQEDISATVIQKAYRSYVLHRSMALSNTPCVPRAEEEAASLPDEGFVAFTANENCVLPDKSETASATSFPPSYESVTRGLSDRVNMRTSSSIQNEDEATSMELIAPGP

Row | IC50 | SMILES
1 | 420 nM | COc1c(C(F)(F)F)ccc(Oc2ccc(F)c(F)c2)c1C(=O)Nc1ccnc(C(N)=O)c1 [Compound 55, 4-[[6-(3,4-difluorophenoxy)-2-methoxy-3-(trifluoromethyl)benzoyl]amino]pyridine-2-carboxamide]
2 | 520 nM | COc1c(C(F)(F)F)ccc(Oc2ccc(OC3CCCCC3)cc2)c1C(=O)Nc1ccnc(C(N)=O)c1 [Compound 60, 4-[[6-[4-(cyclohexoxy)phenoxy]-2-methoxy-3-(trifluoromethyl)benzoyl]amino]pyridine-2-carboxamide]
3 | 1800 nM | COc1c(C(F)(F)F)ccc(Oc2ccccc2)c1C(=O)Nc1ccnc(C(N)=O)c1 [Compound 63, 4-[[2-methoxy-6-phenoxy-3-(trifluoromethyl)benzoyl]amino]pyridine-2-carboxamide]
4 | 16 nM | COc1c(C(F)(F)F)ccc(Oc2ccc(OC(F)(F)F)cc2Cl)c1C(=O)Nc1ccnc(C(N)=O)c1 [Compound 66, 4-[[6-[2-chloro-4-(trifluoromethoxy)phenoxy]-2-methoxy-3-(trifluoromethyl)benzoyl]amino]pyridine-2-carboxamide]
5 | 290 nM | COc1c(C(F)(F)F)ccc(Oc2ccc(F)c3c2OCC3)c1C(=O)Nc1ccnc(C(N)=O)c1 [Compound 68, 4-[[6-[(4-fluoro-2,3-dihydrobenzofuran-7-yl)oxy]-2-methoxy-3-(trifluoromethyl)benzoyl]amino]pyridine-2-carboxamide]
6 | > 3000 nM | COc1cc(Oc2ccc(C(F)(F)F)c(OC)c2C(=O)Nc2ccnc(C(N)=O)c2)ccc1F [Compound 69, 4-[[6-(4-fluoro-3-methoxy-phenoxy)-2-methoxy-3-(trifluoromethyl)benzoyl]amino]pyridine-2-carboxamide]
7 | 1500 nM | COc1nc(Cl)ccc1Oc1cccc(C(F)(F)F)c1C(=O)Nc1ccnc(C(N)=O)c1 [Compound 73, 4-[[2-[(6-chloro-2-methoxy-3-pyridyl)oxy]-6-(trifluoromethyl)benzoyl]amino]pyridine-2-carboxamide]
8 | 1750 nM | COc1cc(F)ccc1Oc1cccc(C(F)(F)F)c1C(=O)Nc1ccnc(C(N)=O)c1 [Compound 75, 4-[[2-(4-fluoro-2-methoxy-phenoxy)-6-(trifluoromethyl)benzoyl]amino]pyridine-2-carboxamide]
9 | > 3000 nM | NC(=O)c1cc(NC(=O)c2c(Oc3ccc(F)c4c3OCC4)cccc2C(F)(F)F)ccn1 [Compound 78, 4-[[2-[(4-fluoro-2,3-dihydrobenzofuran-7-yl)oxy]-6-(trifluoromethyl)benzoyl]amino]pyridine-2-carboxamide]
10 | > 3000 nM | NC(=O)c1cc(NC(=O)c2c(Oc3ccc(F)cc3Cl)cccc2C(F)(F)F)ccn1 [Compound 79, 4-[[2-(2-chloro-4-fluoro-phenoxy)-6-(trifluoromethyl)benzoyl]amino]pyridine-2-carboxamide]
11 | 625 nM | COc1cc(OC(F)(F)F)ccc1Oc1ccc(C(F)(F)F)c(OCC2CC2)c1C(=O)Nc1ccnc(C(N)=O)c1 [Compound 84, 4-[[2-(cyclopropylmethoxy)-6-[2-methoxy-4-(trifluoromethoxy)phenoxy]-3-(trifluoromethyl)benzoyl]amino]pyridine-2-carboxamide]

More lines, now with the values behind:

Row | SMILES | IC50
12 | COc1c(C(F)(F)F)ccc(Oc2ccc(OC(C)C)cc2)c1C(=O)Nc1ccnc(C(N)=O)c1 [Compound 53, 4-[[6-(4-isopropoxyphenoxy)-2-methoxy-3-(trifluoromethyl)benzoyl]amino]pyridine-2-carboxamide] | 110 nM
13 | COc1ccc(Cl)cc1Oc1ccc(C(F)(F)F)c(OC)c1C(=O)Nc1ccnc(C(N)=O)c1 [Compound 54, 4-[[6-(5-chloro-2-methoxy-phenoxy)-2-methoxy-3-(trifluoromethyl)benzoyl]amino]pyridine-2-carboxamide] | 510 nM
14 | COc1c(C(F)(F)F)ccc(Oc2ccc(OC(C)C)c(Cl)c2)c1C(=O)Nc1ccnc(C(N)=O)c1 [Compound 56, 4-[[6-(3-chloro-4-isopropoxy-phenoxy)-2-methoxy-3-(trifluoromethyl)benzoyl]amino]pyridine-2-carboxamide] | 48 nM
15 | COc1c(C(F)(F)F)ccc(Oc2ccc(F)c(Cl)c2)c1C(=O)Nc1ccnc(C(N)=O)c1 [Compound 57, 4-[[6-(3-chloro-4-fluoro-phenoxy)-2-methoxy-3-(trifluoromethyl)benzoyl]amino]pyridine-2-carboxamide] | 350 nM
16 | COc1c(Oc2ccc(C(F)(F)F)c(OC)c2C(=O)Nc2ccnc(C(N)=O)c2)ccc(F)c1F [Compound 58, 4-[[6-(3,4-difluoro-2-methoxy-phenoxy)-2-methoxy-3-(trifluoromethyl)benzoyl]amino]pyridine-2-carboxamide] | 150 nM
17 | COc1c(C(F)(F)F)ccc(Oc2ccc(F)cc2Cl)c1C(=O)Nc1ccnc(C(N)=O)c1 [Compound 59, 4-[[6-(2-chloro-4-fluoro-phenoxy)-2-methoxy-3-(trifluoromethyl)benzoyl]amino]pyridine-2-carboxamide] | 100 nM
18 | COc1c(C(F)(F)F)ccc(Oc2ccc(F)c(C)c2)c1C(=O)Nc1ccnc(C(N)=O)c1 [Compound 61, 4-[[6-(4-fluoro-3-methyl-phenoxy)-2-methoxy-3-(trifluoromethyl)benzoyl]amino]pyridine-2-carboxamide] | 490 nM
19 | COc1c(C(F)(F)F)ccc(Oc2ccc(F)cc2F)c1C(=O)Nc1ccnc(C(N)=O)c1 [Compound 62, 4-[[6-(2,4-difluorophenoxy)-2-methoxy-3-(trifluoromethyl)benzoyl]amino]pyridine-2-carboxamide] | 440 nM
20 | COc1c(C(F)(F)F)ccc(Oc2ccc(F)cc2C)c1C(=O)Nc1ccnc(C(N)=O)c1 [Compound 64, 4-[[6-(4-fluoro-2-methyl-phenoxy)-2-methoxy-3-(trifluoromethyl)benzoyl]amino]pyridine-2-carboxamide] | 63 nM
21 | COc1c(C(F)(F)F)ccc(Oc2ccc(OC(F)(F)F)c(F)c2)c1C(=O)Nc1ccnc(C(N)=O)c1 [Compound 65, 4-[[6-[3-fluoro-4-(trifluoromethoxy)phenoxy]-2-methoxy-3-(trifluoromethyl)benzoyl]amino]pyridine-2-carboxamide] | 36 nM
22 | COc1c(C(F)(F)F)ccc(Oc2ccc(OC(C)C)c(F)c2)c1C(=O)Nc1ccnc(C(N)=O)c1 [Compound 67, 4-[[6-(3-fluoro-4-isopropoxy-phenoxy)-2-methoxy-3-(trifluoromethyl)benzoyl]amino]pyridine-2-carboxamide] | 110 nM
23 | COc1c(C(F)(F)F)ccc(Oc2ccc(C(F)(F)F)nc2)c1C(=O)Nc1ccnc(C(N)=O)c1 [Compound 70, 4-[[2-methoxy-3-(trifluoromethyl)-6-[[6-(trifluoromethyl)-3-pyridyl]oxy]benzoyl]amino]pyridine-2-carboxamide] | > 3000 nM
24 | CC(C)Oc1ccc(Oc2cccc(C(F)(F)F)c2C(=O)Nc2ccnc(C(N)=O)c2)c(F)c1F [Compound 72, 4-[[2-(2,3-difluoro-4-isopropoxy-phenoxy)-6-(trifluoromethyl)benzoyl]amino]pyridine-2-carboxamide] | 560 nM
25 | CC(C)Oc1ccc(Oc2cccc(C(F)(F)F)c2C(=O)Nc2ccnc(C(N)=O)c2)cc1F [Compound 74, 4-[[2-(3-fluoro-4-isopropoxy-phenoxy)-6-(trifluoromethyl)benzoyl]amino]pyridine-2-carboxamide] | 1200 nM
26 | NC(=O)c1cc(NC(=O)c2c(Oc3ccc(F)cc3F)cccc2C(F)(F)F)ccn1 [Compound 77, 4-[[2-(2,4-difluorophenoxy)-6-(trifluoromethyl)benzoyl]amino]pyridine-2-carboxamide] | > 3000 nM
27 | NC(=O)c1cc(NC(=O)c2c(Oc3ccc(F)c(Cl)c3)cccc2C(F)(F)F)ccn1 [Compound 80, 4-[[2-(3-chloro-4-fluoro-phenoxy)-6-(trifluoromethyl)benzoyl]amino]pyridine-2-carboxamide] | > 3000 nM
28 | CC(C)Oc1ccc(Oc2cccc(C(F)(F)F)c2C(=O)Nc2ccnc(C(N)=O)c2)c(F)c1 [Compound 81, 4-[[2-(2-fluoro-4-isopropoxy-phenoxy)-6-(trifluoromethyl)benzoyl]amino]pyridine-2-carboxamide] | > 3000 nM
29 | COc1cc(OC(F)(F)F)ccc1Oc1ccc(C(F)(F)F)c(OCC(C)C)c1C(=O)Nc1ccnc(C(N)=O)c1 [Compound 82, 4-[[2-isobutoxy-6-[2-methoxy-4-(trifluoromethoxy)phenoxy]-3-(trifluoromethyl)benzoyl]amino]pyridine-2-carboxamide] | > 3000 nM
30 | CCOc1c(C(F)(F)F)ccc(Oc2ccc(OC(F)(F)F)cc2OC)c1C(=O)Nc1ccnc(C(N)=O)c1 [Compound 83, 4-[[2-ethoxy-6-[2-methoxy-4-(trifluoromethoxy)phenoxy]-3-(trifluoromethyl)benzoyl]amino]pyridine-2-carboxamide] | 160 nM
31 | COc1cc(OC(F)(F)F)ccc1Oc1ccc(C(F)(F)F)c(OC2CC2)c1C(=O)Nc1ccnc(C(N)=O)c1 [Compound 85, 4-[[2-(cyclopropoxy)-6-[2-methoxy-4-(trifluoromethoxy)phenoxy]-3-(trifluoromethyl)benzoyl]amino]pyridine-2-carboxamide] | 180 nM
32 | COc1cc(OC(F)(F)F)ccc1Oc1ccc(C(F)(F)F)c(OCC2CC2(F)F)c1C(=O)Nc1ccnc(C(N)=O)c1 (stereo not drawn) [Compound 86, 4-[[2-[(2,2-difluorocyclopropyl)methoxy]-6-[2-methoxy-4-(trifluoromethoxy)phenoxy]-3-(trifluoromethyl)benzoyl]amino]pyridine-2-carboxamide] | 1000 nM
33 | COc1cc(OC(F)(F)F)ccc1Oc1ccc(C(F)(F)F)c(NCC(C)C)c1C(=O)Nc1ccnc(C(N)=O)c1 [Compound 87, 4-[[2-(isobutylamino)-6-[2-methoxy-4-(trifluoromethoxy)phenoxy]-3-(trifluoromethyl)benzoyl]amino]pyridine-2-carboxamide] | 1500 nM
